Measurements reported in patent US8192962B2, “Processes for detecting toxic substances” (Daikin Industries, Ltd., priority 2001, dated 2012).

Test system: Energy system protein genes
Experiment: DNA chip mRNA expression in yeast, energy system protein genes (Table 4)
Type: cell-based, Saccharomyces cerevisiae S288C
Experimental: Yeast (Saccharomyces cerevisiae S288C (α SUC2mal mel gap2 CUP1)) were incubated at 25° C. on YPD medium (yeast extract 1%, polypepton 2%, glucose 2%). One of toxic chemical substances was added to the cells at logarithmic growth phase, and the cells were further incubated for two hours. Cells were cultured without any chemical substance in the same condition, and were used as control. Concentrations of the chemical substances were defined to inhibit the growth of the yeast but not lead to death.
After completion of the incubation, the culture was centrifuged to collect the cells. To the cells, sodium acetate buffer (50 mM sodium acetate, 10 mM EDTA, 1% SDS) was added, and the mixture was shaken at 65° C. for five minutes, followed by returning to room temperature, and obtaining the supernatant, of which the procedures were repeated two times. To the supernatant, ½ amount of a solution of phenol/chloroform was added, and the mixture was centrifuged to give a supernatant, which was added with an equal amount of chloroform, and the mixture was centrifuged to give a supernatant. To the supernatant, an equal amount of isopropanol containing 0.3 M sodium acetate was added, and the mixture was allowed to stand at room temperature for 30 minutes, after which the mixture was centrifuged to give a sediment of the whole RNAs. Seventy % ethanol was added to the sediment, and the mixture was again centrifuged to give a sediment, which was then dried and dissolved in water. mRNA was isolated from the whole RNAs as followings. In view of the fact that a poly A chain is attached to the 3′ terminus of mRNA, a polynucleotide having a poly T structure which was immobilized on the surface of latex beads was used to trap the mRNA, and then the mRNA was washed and eluted with spine column (Oligotex-dT30<Super>mRNA Purification Kit, Takara). Reverse transcription of the mRNA was conducted with a reverse transcriptase (Super Script II Reverse Transcriptase; catalogue No. 18064-014, GibcoBRL) using fluorescence-labeled nucleotides to give cDNAs that were introduced with Cy3-dUTP or Cy5-dUTP during the reverse transcription.
The labeled cDNAs were dissolved in TE buffer (10mM Tris-HCl/1 mM EDTA, pH8.0), and the solution was dropped on the DNA chip containing the whole genes of yeast (DNA Chip Research Inc. Japan) so that the cDNAs were hybridized on the DNA chip at 65° C. for over 12 hours. The fluoresces intensity of the DNA chip was read with a scanner, and the ratio relative to the fluorescence intensity resulting from the absence of chemical substance was estimated as the following, which is shown in Tables 1 to 9: […]

Measured: The level of expressed mRNA in the presence of chemical substance/The level of expressed mRNA in the absence of chemical substance

Oc1cc(Cl)c(Cl)cc1Cl [(6), 2,4,5-trichlorophenol]
0.6: yeast gene YML120C, cells incubated two hours with the chemical substance | yeast gene YMR261C, cells incubated two hours with the chemical substance | yeast gene YPR048W, cells incubated two hours with the chemical substance
3.5: yeast gene YCL040W
1.1: yeast gene YBR001C, cells incubated two hours with the chemical substance | yeast gene YDL078C, cells incubated two hours with the chemical substance | yeast gene YEL024W, cells incubated two hours with the chemical substance | yeast gene YGL187C, cells incubated two hours with the chemical substance | yeast gene YGR087C, cells incubated two hours with the chemical substance | yeast gene YJL121C, cells incubated two hours with the chemical substance | yeast gene YLR295C, cells incubated two hours with the chemical substance, 25° C., YPD medium | yeast gene YPL276W, cells incubated two hours with the chemical substance
0.4: yeast gene YGL018C, cells incubated two hours with the chemical substance | yeast gene YLR395C, cells incubated two hours with the chemical substance | yeast gene YMR323W, cells incubated two hours with the chemical substance
6.2: yeast gene YGR256W
0.7: yeast gene YGL256W, cells incubated two hours with the chemical substance | yeast gene YJL166W, cells incubated two hours with the chemical substance | yeast gene YLR377C, cells incubated two hours with the chemical substance
1.7: yeast gene YBR221C, cells incubated two hours with the chemical substance | yeast gene YDL174C | yeast gene YDR050C, cells incubated two hours with the chemical substance | yeast gene YDR079W, cells incubated two hours with the chemical substance | yeast gene YGR192C | yeast gene YIL045W | yeast gene YIR031C, cells incubated two hours with the chemical substance | yeast gene YKR097W | yeast gene YML129C, cells incubated two hours with the chemical substance | yeast gene YOL086C, cells incubated two hours with the chemical substance | yeast gene YOL165C | yeast gene YPL061W, cells incubated two hours with the chemical substance
2.1: yeast gene YDR178W, cells incubated two hours with the chemical substance
4.2: yeast gene YAL060W
1.6: yeast gene YGL191W, cells incubated two hours with the chemical substance | yeast gene YGL205W, cells incubated two hours with the chemical substance | yeast gene YIL160C | yeast gene YJR009C | yeast gene YKL152C | yeast gene YLR345W | yeast gene YOR142W, cells incubated two hours with the chemical substance | yeast gene YPL262W, cells incubated two hours with the chemical substance
16.3: yeast gene YGR043C
1.9: yeast gene YGR254W | yeast gene YLR304C, cells incubated two hours with the chemical substance
1.8: yeast gene YKR009C, cells incubated two hours with the chemical substance | yeast gene YLR258W, cells incubated two hours with the chemical substance | yeast gene YML054C | yeast gene YNL331C | yeast gene YPL031C, cells incubated two hours with the chemical substance
1.4: yeast gene YGR174C, cells incubated two hours with the chemical substance | yeast gene YJR155W | yeast gene YKR058W, cells incubated two hours with the chemical substance, 25° C., YPD medium | yeast gene YMR267W, cells incubated two hours with the chemical substance, 25° C., YPD medium | yeast gene YOR388C, cells incubated two hours with the chemical substance
4.6: yeast gene YNL237W
2.8: yeast gene YGR207C | yeast gene YML100W | yeast gene YMR105C
0.9: yeast gene YBL058W, cells incubated two hours with the chemical substance | yeast gene YBL099W, cells incubated two hours with the chemical substance | yeast gene YDL067C, cells incubated two hours with the chemical substance | yeast gene YGR062C, cells incubated two hours with the chemical substance, 25° C., YPD medium | yeast gene YLR284C, cells incubated two hours with the chemical substance | yeast gene YML087C | yeast gene YMR073C, cells incubated two hours with the chemical substance | yeast gene YNL241C
3.0: yeast gene YFR015C
1.3: yeast gene YDL107W, cells incubated two hours with the chemical substance | yeast gene YDR377W, cells incubated two hours with the chemical substance | yeast gene YKL060C, cells incubated two hours with the chemical substance | yeast gene YML125C | yeast gene YNL071W | yeast gene YPL171C
6.5: yeast gene YDL021W
1.0: yeast gene YCR105W, cells incubated two hours with the chemical substance | yeast gene YGL062W | yeast gene YPL275W, cells incubated two hours with the chemical substance
2.0: yeast gene YMR118C | yeast gene YNL202W, cells incubated two hours with the chemical substance
2.2: yeast gene YDR001C | yeast gene YDR231C
1.5: yeast gene YEL039C, cells incubated two hours with the chemical substance | yeast gene YHR174W | yeast gene YJR121W, cells incubated two hours with the chemical substance | yeast gene YLR044C, cells incubated two hours with the chemical substance | yeast gene YLR354C, cells incubated two hours with the chemical substance | yeast gene YPR184W, cells incubated two hours with the chemical substance
2.5: yeast gene YCR012W | yeast gene YER178W | yeast gene YLR134W, cells incubated two hours with the chemical substance
0.5: yeast gene YJR048W | yeast gene YKL148C, cells incubated two hours with the chemical substance
7.1: yeast gene YPL088W
3.2: yeast gene YFR053C
2.4: yeast gene YJL052W
0.8: yeast gene YCR046C, cells incubated two hours with the chemical substance | yeast gene YDR529C, cells incubated two hours with the chemical substance | yeast gene YHL008C | yeast gene YKL016C, cells incubated two hours with the chemical substance
1.2: yeast gene YBR185C, cells incubated two hours with the chemical substance | yeast gene YDL181W, cells incubated two hours with the chemical substance | yeast gene YDR298C, cells incubated two hours with the chemical substance | yeast gene YFL057C | yeast gene YKL035W | yeast gene YKL141W, cells incubated two hours with the chemical substance | yeast gene YLL041C, cells incubated two hours with the chemical substance | yeast gene YLR038C, cells incubated two hours with the chemical substance | yeast gene YMR089C | yeast gene YMR205C, cells incubated two hours with the chemical substance | yeast gene YPL240C
2.7: yeast gene YOR178C, cells incubated two hours with the chemical substance
3.7: yeast gene YHR179W
2.6: yeast gene YGR244C | yeast gene YIL111W
2.9: yeast gene YBR126C | yeast gene YGR008C
